Assay [1] concerns the target PI3Kγ (p110γ) Recombinant Human Protein (Homo sapiens (Human), UniProt P48736). The assay is described as follows: PI3K-γ Scintillation Proximity Assay. It counts as biochemical. To be noted: read-out: PI3K-gamma SPA IC50. Put shortly: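 Recombinant human p110γ (13 nM) with 20 μM PIP2 and 2 μM ATP plus 0.5 μCi [γ-33P]ATP in 20 mM MOPS pH 6.7, 10 mM MgCl2, 5 mM DTT, 0.03% CHAPS, 2% DMSO, 120 min at room temperature. Product captured on WGA SPA beads and counted; IC50 fitted from % of solvent control versus log concentration.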
(Scintillation proximity formats need no separation of bound from free tracer.)

The target of assay [2] is PI3Kδ (p110δ/p85α) Recombinant Human Protein (Homo sapiens (Human), UniProt O00329). Description: PI3Kδ Scintillation Proximity Assay. The class given is biochemical. Conditions: read-out: PI3K-delta SPA IC50. Put shortly: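 Recombinant human p110δ/p85α (3.4 nM) with 20 μM PIP2 and 2 μM ATP plus [γ-33P]ATP, in 20 mM MOPS pH 6.7, 10 mM MgCl2, 5 mM DTT, 0.03% CHAPS, 2% DMSO; 120 min at room temperature. Product captured on WGA SPA beads, scintillation counted; IC50 from percent-of-control curves.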

Assay [3] concerns Phosphorylated Ribosomal Protein S6 (RPS6) in THP-1 cells. The assay is described as follows: THP-1 RPS6 ELISA Assay. It counts as cell-based, Human. To be noted: Homo sapiens, MCP-1 stimulated, phospho-RPS6 ELISA, read-out: THP p-RPS6 ELISA IC50. In short, it runs like this: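 Serum-starved THP-1 cells (2×10^5/well, RPMI) preincubated with compound 2 h at 37° C, then stimulated with 10 nM MCP-1 for 15 min. Lysates assayed by phospho-RPS6 ELISA, absorbance 450 nm (540 nm correction); IC50 from percent inhibition versus log concentration.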
In general terms: In an ELISA, binding on a coated surface is turned into a signal by an enzyme label.

Structures can show the parent of a compound that is named as a salt.

PI3Kγ (p110γ) Recombinant Human Protein, sequence (P48736 whole entry): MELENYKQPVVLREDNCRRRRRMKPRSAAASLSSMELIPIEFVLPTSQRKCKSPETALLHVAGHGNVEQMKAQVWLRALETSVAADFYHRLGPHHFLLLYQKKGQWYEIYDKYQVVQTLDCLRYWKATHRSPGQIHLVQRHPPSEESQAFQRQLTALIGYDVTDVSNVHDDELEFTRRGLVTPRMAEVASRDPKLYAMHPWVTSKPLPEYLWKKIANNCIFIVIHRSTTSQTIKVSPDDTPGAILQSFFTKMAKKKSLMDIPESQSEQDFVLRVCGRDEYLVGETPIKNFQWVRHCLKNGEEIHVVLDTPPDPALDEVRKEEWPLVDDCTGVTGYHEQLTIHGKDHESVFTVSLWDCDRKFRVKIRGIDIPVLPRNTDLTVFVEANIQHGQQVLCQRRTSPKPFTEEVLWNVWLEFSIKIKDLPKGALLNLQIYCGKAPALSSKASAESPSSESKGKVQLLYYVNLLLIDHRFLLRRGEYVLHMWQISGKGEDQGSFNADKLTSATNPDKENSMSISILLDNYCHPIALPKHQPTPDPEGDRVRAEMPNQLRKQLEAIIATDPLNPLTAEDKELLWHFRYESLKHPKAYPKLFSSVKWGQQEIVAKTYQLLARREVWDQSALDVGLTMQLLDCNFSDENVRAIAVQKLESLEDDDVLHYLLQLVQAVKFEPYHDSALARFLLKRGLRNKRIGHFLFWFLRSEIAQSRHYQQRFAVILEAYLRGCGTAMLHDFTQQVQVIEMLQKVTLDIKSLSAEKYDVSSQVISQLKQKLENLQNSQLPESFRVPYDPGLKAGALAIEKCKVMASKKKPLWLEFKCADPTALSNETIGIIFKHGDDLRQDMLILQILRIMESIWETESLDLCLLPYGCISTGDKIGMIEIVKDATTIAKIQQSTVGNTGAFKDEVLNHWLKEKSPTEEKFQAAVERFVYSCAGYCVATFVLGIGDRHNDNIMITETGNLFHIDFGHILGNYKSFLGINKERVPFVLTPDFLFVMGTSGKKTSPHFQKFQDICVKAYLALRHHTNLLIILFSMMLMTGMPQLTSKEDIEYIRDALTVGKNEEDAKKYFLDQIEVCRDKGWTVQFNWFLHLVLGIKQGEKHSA
PI3Kδ (p110δ/p85α) Recombinant Human Protein, sequence (O00329 whole entry): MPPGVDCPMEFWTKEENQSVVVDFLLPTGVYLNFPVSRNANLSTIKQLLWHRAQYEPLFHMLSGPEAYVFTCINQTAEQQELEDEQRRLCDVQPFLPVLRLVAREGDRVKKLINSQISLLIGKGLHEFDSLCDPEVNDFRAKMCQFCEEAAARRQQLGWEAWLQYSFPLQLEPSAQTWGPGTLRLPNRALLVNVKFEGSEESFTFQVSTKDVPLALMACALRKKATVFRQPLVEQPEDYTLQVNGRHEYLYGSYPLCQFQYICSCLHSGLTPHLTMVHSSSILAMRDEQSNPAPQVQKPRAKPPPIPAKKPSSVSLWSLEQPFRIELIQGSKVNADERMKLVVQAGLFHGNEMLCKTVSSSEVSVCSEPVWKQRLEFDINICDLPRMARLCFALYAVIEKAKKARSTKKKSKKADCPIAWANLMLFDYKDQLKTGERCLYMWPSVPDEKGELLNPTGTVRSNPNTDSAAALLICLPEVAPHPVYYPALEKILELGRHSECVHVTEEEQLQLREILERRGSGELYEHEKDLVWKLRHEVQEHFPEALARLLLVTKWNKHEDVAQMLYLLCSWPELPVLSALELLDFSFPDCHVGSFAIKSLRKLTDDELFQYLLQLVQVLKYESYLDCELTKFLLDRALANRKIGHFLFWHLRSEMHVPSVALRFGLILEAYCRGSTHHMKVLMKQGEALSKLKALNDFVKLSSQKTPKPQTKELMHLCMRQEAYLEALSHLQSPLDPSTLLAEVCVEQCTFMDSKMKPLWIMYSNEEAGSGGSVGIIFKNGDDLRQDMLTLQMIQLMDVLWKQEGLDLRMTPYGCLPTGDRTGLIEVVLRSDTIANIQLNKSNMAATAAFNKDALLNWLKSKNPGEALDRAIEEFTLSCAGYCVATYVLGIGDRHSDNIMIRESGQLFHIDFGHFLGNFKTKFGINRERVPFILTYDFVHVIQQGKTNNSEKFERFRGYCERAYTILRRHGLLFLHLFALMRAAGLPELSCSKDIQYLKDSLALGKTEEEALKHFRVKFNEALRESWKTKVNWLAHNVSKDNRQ
PI3Kδ (p110δ/p85α) Recombinant Human Protein, sequence (P27986 whole entry partner): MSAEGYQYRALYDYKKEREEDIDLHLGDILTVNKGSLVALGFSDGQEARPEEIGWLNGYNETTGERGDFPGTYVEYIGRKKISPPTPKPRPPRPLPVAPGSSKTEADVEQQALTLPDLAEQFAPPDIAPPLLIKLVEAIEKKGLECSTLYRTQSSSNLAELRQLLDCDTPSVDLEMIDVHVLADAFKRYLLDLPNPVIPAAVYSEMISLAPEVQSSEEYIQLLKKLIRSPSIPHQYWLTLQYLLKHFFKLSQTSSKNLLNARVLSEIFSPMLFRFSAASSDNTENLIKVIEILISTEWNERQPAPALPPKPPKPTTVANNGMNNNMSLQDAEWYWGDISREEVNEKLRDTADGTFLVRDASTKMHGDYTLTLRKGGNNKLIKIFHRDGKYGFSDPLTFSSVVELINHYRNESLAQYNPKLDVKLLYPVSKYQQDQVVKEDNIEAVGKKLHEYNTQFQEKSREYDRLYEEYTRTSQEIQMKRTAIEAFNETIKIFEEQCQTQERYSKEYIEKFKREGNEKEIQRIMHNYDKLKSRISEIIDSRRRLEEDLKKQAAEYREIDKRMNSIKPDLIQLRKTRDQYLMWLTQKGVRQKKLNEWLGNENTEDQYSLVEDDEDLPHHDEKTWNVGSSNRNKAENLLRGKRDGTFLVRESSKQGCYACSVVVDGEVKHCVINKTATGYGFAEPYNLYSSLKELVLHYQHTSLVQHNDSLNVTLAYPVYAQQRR

As to `Cc1nc(-c2cc(-c3cncc(C(=O)N4CCC(c5ccccc5)CC4)c3)ccn2)[nH]c1C` [Example 186, 2′-(4,5-Dimethyl-1H-imidazol-2-yl)-5-[(4-phenylpiperidin-1-yl)carbonyl]-3,4′-bipyridine trifluoroacetate salt], the IC50 in assay [1] was no more than 50 nM; in assay [2], no more than 50 nM; in assay [3], no more than 300 nM.

Consider `Cc1nc(-c2cc(-c3cncc(C(=O)N4CC(O)C4)c3)ccn2)[nH]c1C` [Example 152, (2′-(4,5-Dimethyl-1H-imidazol-2-yl)-3,4′-bipyridin-5-yl)(3-hydroxyazetidin-1-yl)methanone trifluoroacetate salt], for which the IC50 in assay [1] is no more than 50 nM; in assay [2], no more than 50 nM; in assay [3], 300 to 1000 nM.

For `CCc1cnc(-c2cc(-c3cncc(S(C)(=O)=O)c3)ccn2)[nH]1` [Example 110, 2′-(5-Ethyl-1H-imidazol-2-yl)-5-(methylsulfonyl)-3,4′-bipyridine trifluoroacetate salt], the IC50 is no more than 50 nM in assay [1], no more than 50 nM in assay [2] and 300 to 1000 nM in assay [3].

On to `Cc1nc(-c2cc(-c3cncc(C(=O)N(C)CC#N)c3)ccn2)[nH]c1C` [Example 203, N-(Cyanomethyl)-2′-(4,5-dimethyl-1H-imidazol-2-yl)-N-methyl-3,4′-bipyridine-5-carboxamide], for which the IC50 was no more than 50 nM in assay [1], no more than 100 nM in assay [2] and 300 to 1000 nM in assay [3].

Source of the values: US11352340B2, “Pyridine and pyridimine compounds as PI3K-gamma inhibitors” (Incyte Corporation, priority 2016, dated 2022).
